Experimental data reported in patent publication US10597388B2, “Pyridazinone herbicides” (FMC CORPORATION, priority 2014, dated 2020).

Key:
Assay in all cases: Test D controlled growth environment herbicide test, pre- and postemergence
Assay type in all cases: in vivo
[1] = test system: barley, winter (winter barley, Hordeum vulgare)
In short: (§1)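 Species sown in silt loam and sprayed preemergence, or grown in peat-based medium to 2–18 cm (1- to 4-leaf stage) and sprayed postemergence, with compounds in non-phytotoxic solvent plus surfactant. Visual injury scored versus controls after 14–21 d in a controlled environment, 0 (no effect) to 100 (complete control).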

[2] = test system: lambsquarters (Chenopodium album)
In short: as §1

[3] = test system: bluegrass (annual bluegrass, Poa annua)
In short: as §1

[4] = test system: bromegrass, downy (downy bromegrass, Bromus tectorum)
In short: as §1

[5] = test system: galium (catchweed bedstraw, Galium aparine)
In short: as §1

[6] = test system: mustard, wild (wild mustard, Sinapis arvensis)
In short: as §1

[7] = test system: foxtail, green (green foxtail, Setaria viridis)
In short: as §1

[8] = test system: kochia (Kochia scoparia)
In short: as §1

[9] = test system: chamomile (scentless chamomile, Matricaria inodora)
In short: as §1

[10] = test system: speedwell (bird's-eye speedwell, Veronica persica)
In short: as §1

[11] = test system: canarygrass (Phalaris minor)
In short: as §1

[12] = test system: barley, spring (spring barley, Hordeum vulgare)
In short: as §1

[13] = test system: oat, wild (wild oat, Avena fatua)
In short: as §1

[14] = Postemergence, 31 g ai/ha, scale 0 to 100 (0 no effect, 100 complete control)
[15] = Postemergence, 125 g ai/ha, visual rating on scale 0 (no effect) to 100 (complete control), 14 to 21 d
[16] = Postemergence, 250 g ai/ha, scale 0 to 100 (0 no effect, 100 complete control)
[17] = Preemergence, 62 g ai/ha, scale 0 to 100 (0 no effect, 100 complete control)
[18] = Preemergence, 125 g ai/ha, scale 0 to 100 (0 no effect, 100 complete control)
[19] = Preemergence, 250 g ai/ha, scale 0 to 100 (0 no effect, 100 complete control)
[20] = postemergence, 62 g ai/ha, scale 0 to 100, 0 no effect, 100 complete control

CCC(=O)Oc1c(C)nn(C)c(=O)c1-c1c(C)sc2c(C)cc(C)cc12 [Compound 28]
Plant response rating, Barley, Winter [1, 14]: 0 | Plant response rating, Barley, Winter [1, 15]: 5 | Plant response rating, Barley, Winter [1, 16]: 5 | Plant response rating (scale of 0 to 100), Barley, Winter ([1]; Preemergence, 31 g ai/ha): 0 | Plant response rating, Barley, Winter [1, 17]: 0 | Plant response rating, Barley, Winter [1, 18]: 15 | Barley, Winter plant response rating [1, 19]: 15 | Plant response rating, Barley, Winter [1, 20]: 0 | Lambsquarters plant response rating [2, 14]: 80 | Plant response rating, Lambsquarters [2, 15]: 90 | Plant response rating, Lambsquarters [2, 16]: 90 | Plant response rating (scale of 0 to 100), Lambsquarters ([2]; Preemergence, 31 g ai/ha): 100 | Plant response rating, Lambsquarters [2, 17]: 100 | Plant response rating, Lambsquarters [2, 18]: 100 | Plant response rating, Lambsquarters [2, 19]: 100 | Plant response rating, Lambsquarters [2, 20]: 85 | Bluegrass plant response rating [3, 14]: 20 | Plant response rating, Bluegrass [3, 15]: 35 | Plant response rating, Bluegrass [3, 16]: 50 | Plant response rating (scale of 0 to 100), Bluegrass ([3]; Preemergence, 31 g ai/ha): 30 | Plant response rating, Bluegrass [3, 17]: 45 | Plant response rating, Bluegrass [3, 18]: 65 | Bluegrass plant response rating [3, 19]: 75 | Plant response rating, Bluegrass [3, 20]: 30 | Bromegrass, Downy plant response rating [4, 14]: 15 | Plant response rating, Bromegrass, Downy [4, 15]: 40 | Plant response rating, Bromegrass, Downy [4, 16]: 70 | Plant response rating (scale of 0 to 100), Bromegrass, Downy ([4]; Preemergence, 31 g ai/ha): 45 | Plant response rating, Bromegrass, Downy [4, 17]: 55 | Plant response rating, Bromegrass, Downy [4, 18]: 70 | Plant response rating, Bromegrass, Downy [4, 19]: 85 | Plant response rating, Bromegrass, Downy [4, 20]: 25 | Galium plant response rating [5, 14]: 100 | Plant response rating, Galium [5, 15]: 100 | Plant response rating, Galium [5, 16]: 100 | Plant response rating (scale of 0 to 100), Galium ([5]; Preemergence, 31 g ai/ha): 15 | Plant response rating, Galium [5, 17]: 60 | Plant response rating, Galium [5, 18]: 85 | Plant response rating, Galium [5, 19]: 100 | Plant response rating, Galium [5, 20]: 100 | Mustard, Wild plant response rating [6, 14]: 35 | Plant response rating, Mustard, Wild [6, 15]: 70 | Plant response rating, Mustard, Wild [6, 16]: 70 | Plant response rating (scale of 0 to 100), Mustard, Wild ([6]; Preemergence, 31 g ai/ha): 10 | Plant response rating, Mustard, Wild [6, 17]: 15 | Plant response rating, Mustard, Wild [6, 18]: 30 | Plant response rating, Mustard, Wild [6, 19]: 55 | Plant response rating, Mustard, Wild [6, 20]: 45 | Foxtail, Green plant response rating [7, 14]: 65 | Plant response rating, Foxtail, Green [7, 15]: 85 | Plant response rating, Foxtail, Green [7, 16]: 90 | Plant response rating (scale of 0 to 100), Foxtail, Green ([7]; Preemergence, 31 g ai/ha): 70 | Plant response rating, Foxtail, Green [7, 17]: 80 | Plant response rating, Foxtail, Green [7, 18]: 100 | Plant response rating, Foxtail, Green [7, 19]: 100 | Plant response rating, Foxtail, Green [7, 20]: 75 | Kochia plant response rating [8, 14]: 35 | Plant response rating, Kochia [8, 15]: 50 | Plant response rating, Kochia [8, 16]: 75 | Plant response rating (scale of 0 to 100), Kochia ([8]; Preemergence, 31 g ai/ha): 20 | Plant response rating, Kochia [8, 17]: 20 | Plant response rating, Kochia [8, 18]: 30 | Plant response rating, Kochia [8, 19]: 65 | Plant response rating, Kochia [8, 20]: 40 | Chamomile plant response rating [9, 14]: 85 | Plant response rating, Chamomile [9, 15]: 90 | Plant response rating, Chamomile [9, 16]: 95 | Plant response rating (scale of 0 to 100), Chamomile ([9]; Preemergence, 31 g ai/ha): 100 | Plant response rating, Chamomile [9, 17]: 95 | Plant response rating, Chamomile [9, 18]: 100 | Plant response rating, Chamomile [9, 19]: 100 | Plant response rating, Chamomile [9, 20]: 90 | Speedwell plant response rating [10, 14]: 60 | Plant response rating, Speedwell [10, 15]: 100 | Plant response rating, Speedwell [10, 16]: 100 | Plant response rating (scale of 0 to 100), Speedwell ([10]; Preemergence, 31 g ai/ha): 95 | Plant response rating, Speedwell [10, 17]: 95 | Plant response rating, Speedwell [10, 18]: 95 | Plant response rating, Speedwell [10, 19]: 100 | Plant response rating, Speedwell [10, 20]: 85 | Canarygrass plant response rating [11, 14]: 75 | Plant response rating, Canarygrass [11, 15]: 80 | Plant response rating, Canarygrass [11, 16]: 85 | Plant response rating (scale of 0 to 100), Canarygrass ([11]; Preemergence, 31 g ai/ha): 85 | Plant response rating, Canarygrass [11, 17]: 85 | Plant response rating, Canarygrass [11, 18]: 95 | Plant response rating, Canarygrass [11, 19]: 95 | Plant response rating, Canarygrass [11, 20]: 75 | Plant response rating, Barley, Spring [12, 14]: 5 | Plant response rating, Barley, Spring [12, 15]: 5 | Plant response rating, Barley, Spring [12, 16]: 10 | Plant response rating (scale of 0 to 100), Barley, Spring ([12]; Preemergence, 31 g ai/ha): 0 | Plant response rating, Barley, Spring [12, 17]: 0 | Plant response rating, Barley, Spring [12, 18]: 0 | Barley, Spring plant response rating [12, 19]: 0 | Plant response rating, Barley, Spring [12, 20]: 5 | Oat, Wild plant response rating [13, 14]: 75 | Plant response rating, Oat, Wild [13, 15]: 90 | Plant response rating, Oat, Wild [13, 16]: 95 | Plant response rating (scale of 0 to 100), Oat, Wild ([13]; Preemergence, 31 g ai/ha): 85 | Plant response rating, Oat, Wild [13, 17]: 85 | Plant response rating, Oat, Wild [13, 18]: 90 | Plant response rating, Oat, Wild [13, 19]: 100 | Plant response rating, Oat, Wild [13, 20]: 85
